{"source": "patent US5614504A", "about": "“Method of making inosine monophosphate derivatives and immunopotentiating uses thereof” (The University of South Florida, priority 1995, dated 1997)", "key": {"[1]": {"test": "Acute toxicity (LD50)", "details": "in vivo"}, "[2]": {"test": "in vitro", "assay_type": "in vitro ADME, Crotalus atrox", "details": "rattlesnake, pH 7.3; 0.02 units 5'-nucleotidase, 37° C., 10 minutes; four experiments; read-out: Hydrolysis (%)", "method": "(§1) Nucleotide samples (40-60 nmoles) were incubated at 37° C. for 10 minutes with 0.02 units 5'-nucleotidase in a total volume of 100 μl containing […] HEPES, pH 7.3 and […] MgCl2. […] Phosphate was determined by the absorbance of 820 nm. Blanks consisting of nucleotide but no enzyme were tested in parallel to correct for non-enzymatic hydrolysis."}, "[3]": {"tested_on": "prothymocytes", "details": "Touraine et al., 1991; cited from earlier work"}, "[4]": {"tested_on": "IL-10", "test": "PHA-induced IL-10 production", "assay_type": "cell-based", "details": "preliminary data"}, "[5]": {"tested_on": "CD8+ lymphocytes", "test": "PHA response of CD8+ enriched human lymphocytes", "assay_type": "cell-based", "details": "MIMP 1-200 μg/ml, 3 donors, p <0.01", "description": "Human CD4+ and CD8+ lymphocyte subsets were obtained from normal controls using commercial panning techniques (Applied Immune Sciences, Santa Clara, Calif.).\nHuman peripheral blood lymphocytes are on average approximately 80% T lymphocytes and 20% B lymphocytes and of the T lymphocytes, 2/3 are of the CD4+ helper/inducer phenotype and 1/3 are the CD8+ suppressor/cytotoxic phenotype. Enrichment of CD4+ T cells or CD8+ T cells can be achieved through reduction of the other phenotype (>98%) removal using adherence to monoclonal antibody-coated flasks (panning)."}, "[6]": {"tested_on": "IL-2", "test": "PHA-induced IL-2 production", "assay_type": "cell-based", "details": "preliminary data"}, "[7]": {"tested_on": "murine splenocytes", "test": "Murine splenocyte proliferation with PHA or LPS", "assay_type": "cell-based, BALB/c mice", "details": "for tritiated thymidine incorporation, LPS 10 μg/ml / tritiated thymidine incorporation, PHA 0.5 μg/ml: mean CPM±SEM", "method": "(§2) In vitro: Both human peripheral blood lymphocytes (HPBL) and mouse spleen lymphocytes (MSL) were employed. Proliferation was assayed by tritiated thymidine incorporation, as described in Hadden et al. (1975) and Hadden et al. (1986). For HPBL transformation, PHA and PWM were used at 0.5 μg/ml. For MSL transformation, Con A was used at 0.5 μg/ml, phytohemagglutinin (PHA, Murex Diagnostics, Atlanta, Ga.) at 0.5 μg/ml and lipopolysaccharide endotoxin (LPS, Sigma, St. Louis, Mo.) at 10 μg/ml. When protected-IMP derivatives were added, they were added at the onset of culture at varying concentrations ranging from 0.1 μg/ml to 100 μg/ml.\n(§3) Murine splenocytes were obtained from BALB/c mice, 4-12 months old, by standard procedures (Hadden et al., 1975). They were cultured in microwell plates at 1.5×10^6 cells/ml of minimal essential media (MEM, Gibco Labs, Grand Island, N.Y.) with 5% fetal calf serum (FCS, Hyclone Labs, Logan, Utah) and tested for their proliferative response to mitogens as measured by incorporation of (^3 H) tritiated thymidine (New England Nuclear, Wilmington Del., […]; 2.5 μCi/ml) during a terminal pulse followed by liquid scintillation spectrometry. Human cells were seeded at […] and cultured for 48 hours with an 18 hour pulse with ^3 H-thymidine.\nIn a further experiment, murine splenocytes were incubated with PHA or LPS and MIMP (1-100 μg/ml). […] Splenocyte responses to PHA preferentially reflect T lymphocyte responses, confirming the responses seen with ConA. The LPS responses also parallel the previous experiment.\nThe data was obtained from four different animals and represent quadruplicate samples for each concentration. They are expressed as mean CPM±SEM, with * showing a significance of p<0.05 and ** showing p<0.01."}, "[8]": {"test": "Further set: percent hydrolysis by 5'-nucleotidase (Table 1B)", "assay_type": "in vitro ADME, Crotalus atrox", "details": "rattlesnake, 20 minutes incubation, 200 μl", "method": "as §1\nThe protocol was as hereinabove except that the first incubation was for 20 minutes in a total volume of 200 μl, 0.1 mM HEPES and 10 mM MgCl2. The percent hydrolysis of nucleotides was performed in duplicate for each assay."}, "[9]": {"tested_on": "human peripheral blood lymphocytes (HPBL)", "test": "PHA responses of HPBL from aged and HIV-infected individuals", "assay_type": "cell-based", "details": "100 μg/ml", "method": "The human donors included 22 healthy controls (ages ranging from 20-50), 24 aged individuals (mean age 84 years, ±1), 8 HIV-infected pre-AIDS patients (CDC Class II-mean CD4 count 544), and 8 AIDS patients (mean CD4 count 40).\nFIG. 7 depicts the PHA responses of these aged and HIV-infected individuals and the effect of stimulation with 100 μg/ml of MIMP compared to normal controls (C)."}, "[10]": {"tested_on": "mouse spleen lymphocytes (MSL)", "test": "Mouse spleen lymphocyte proliferation to Con A", "assay_type": "cell-based", "method": "In vitro: Both human peripheral blood lymphocytes (HPBL) and mouse spleen lymphocytes (MSL) were employed. […] For HPBL transformation, PHA and PWM were used at 0.5 μg/ml. For MSL transformation, Con A was used at 0.5 μg/ml, phytohemagglutinin (PHA, Murex Diagnostics, Atlanta, Ga.) at 0.5 μg/ml and lipopolysaccharide endotoxin (LPS, Sigma, St. Louis, Mo.) at 10 μg/ml.\nThey were cultured in microwell plates at 1.5×10^6 cells/ml of minimal essential media (MEM, Gibco Labs, Grand Island, N.Y.) with 5% fetal calf serum (FCS, Hyclone Labs, Logan, Utah) and tested for their proliferative response to mitogens as measured by incorporation of (^3 H) tritiated thymidine (New England Nuclear, Wilmington Del., […]; 2.5 μCi/ml) during a terminal pulse followed by liquid scintillation spectrometry."}, "[11]": {"tested_on": "human peripheral blood lymphocytes (HPBL)", "test": "Response of normal HPBL to PWM", "assay_type": "cell-based", "details": "PWM 0.5 μg/ml", "method": "as §2, §3\nNormal human peripheral blood lymphocytes (HPBL) were stimulated with the mitogenic agents PHA or PWM. […]"}}, "note": "Like-named read-outs stand apart in the source and are kept apart here.", "data": [{"compound": "COP(=O)(O)OC[C@H]1O[C@@H](n2cnc3c(=O)[nH]cnc32)[C@H](O)[C@@H]1O", "note": "[Me-IMP, Methyl-5'-inosine-monophosphate]", "values": [{"measurement": "LD50", "setting": "[1]; ip, intraperitoneally", "value": "> 500", "unit": "mg/kg"}, {"measurement": "LD50", "setting": "[1]; po, orally", "value": "> 5000", "unit": "mg/kg"}, {"measurement": "metabolised at 10 min", "setting": "[2]", "value": 2.1, "unit": "%"}, {"measurement": "differentiation markers of prothymocytes", "setting": "[3]", "value": "induce differentiation markers of prothymocytes"}, {"measurement": "effect on IL-10 production", "setting": "[4]", "value": "potently inhibits"}, {"measurement": "PHA response of CD8+ lymphocytes", "setting": "[5]", "value": "significantly augmented"}, {"measurement": "effect on PHA-induced IL-2", "setting": "[6]", "value": "only a small effect"}, {"measurement": "tritiated thymidine incorporation, LPS 10 μg/ml", "setting": "[7]; MIMP 1 μg/ml", "value": "47261 ± 997", "unit": "CPM"}, {"measurement": "tritiated thymidine incorporation, PHA 0.5 μg/ml", "setting": "[7]; MIMP 1 μg/ml", "value": "106647 ± 4917", "unit": "CPM"}, {"measurement": "tritiated thymidine incorporation, LPS 10 μg/ml", "setting": "[7]; MIMP 10 μg/ml, p<0.05", "value": "57481 ± 2343", "unit": "CPM"}, {"measurement": "tritiated thymidine incorporation, PHA 0.5 μg/ml", "setting": "[7]; MIMP 10 μg/ml, p<0.05", "value": "117247 ± 6500", "unit": "CPM"}, {"measurement": "tritiated thymidine incorporation, PHA 0.5 μg/ml", "setting": "[7]; MIMP 100 μg/ml, p<0.01", "value": "124801 ± 6630", "unit": "CPM"}, {"measurement": "tritiated thymidine incorporation, LPS 10 μg/ml", "setting": "[7]; MIMP 100 μg/ml, p<0.05", "value": "55153 ± 6176", "unit": "CPM"}, {"measurement": "splenocyte responses in the absence of mitogens", "setting": "[7]; MIMP 1-100 μg/ml", "value": "did not affect"}, {"measurement": "proliferative responses in the presence of mitogens", "setting": "[7]; MIMP 1-100 μg/ml, PHA or LPS", "value": "progressively and significantly augumented"}, {"measurement": "metabolised at 20 min", "setting": "[8]; read-out: Percent hydrolysis by 5'-nucleotidase, Assay 1", "value": 1.5, "unit": "%"}, {"measurement": "metabolised at 20 min", "setting": "[8]; read-out: Percent hydrolysis by 5'-nucleotidase, Assay 2", "value": 2.2, "unit": "%"}, {"measurement": "metabolised at 20 min", "setting": "[8]; read-out: Percent hydrolysis by 5'-nucleotidase, Assay 3", "value": 2.6, "unit": "%"}, {"measurement": "response of lymphocytes to MIMP in presence of PHA", "setting": "[9]; 8 AIDS patients", "value": "no response"}, {"measurement": "response of lymphocytes to MIMP in presence of PHA", "setting": "[9]; 8 HIV-infected (ARC) individuals", "value": "significant response"}, {"measurement": "response of lymphocytes to MIMP in presence of PHA", "setting": "[9]; 9 aged patients (Ag-)", "value": "markedly depressed responses to PHA and also to MIMP"}, {"measurement": "response of lymphocytes to MIMP in presence of PHA", "setting": "[9]; 15 aged patients (Ag+)", "value": "normal PHA responses and responses to MIMP"}, {"measurement": "response of lymphocytes to MIMP in presence of PHA", "setting": "[9]; 22 controls", "value": "normal PHA and MIMP responses"}, {"measurement": "relative potency, in vitro mouse lymphocyte proliferation", "setting": "[10]", "value": "most potent"}, {"measurement": "proliferative responses of MSL to Con A", "setting": "[10]; 0.1, 1, 10, 100 μg/ml, Con A 0.5 μg/ml", "value": "stimulated the proliferative responses"}, {"measurement": "effect on PWM response of HPBL", "setting": "[11]", "value": "not affected"}]}]}
